Tests used:
Klebsiella pneumoniae = assay: Minimum Inhibitory Concentration (MIC) by spiral plater / spiral gradient endpoint against Klebsiella pneumoniae; format: cell-based; conditions: quantity of BIT used alone that gives the desired effect, calcium ethylhexanoate-BIT series
Method: Synergistic Index=Qa/QA+Qb/QB [Equation No. 1] • where Qa=the quantity of component A used in a binary mixture that gives the desired effect • QA=the quantity of component A which when used alone gives the desired effect • Qb=the quantity of component B used in a binary mixture that gives the desired effect • QB=the quantity of component B which when used alone gives the desired effect
Minimum Inhibitory Concentration (“MIC”) for each of the antimicrobial compositions was determined against a test microbe, which in this case was a spore suspension of the fungus Alternaria alternata, with the aid of an Autoplate 4000 spiral plater that is commercially available from Spiral Biotech, Inc., Norwood, Mass., and its accompanying spiral gradient endpoint software (hereinafter referred to as “the SGE software”). […]
Inoculated spiral gradient plates were incubated for 48 hours in an incubator at 28° C. […] This growth endpoint value (expressed in mm as measured from center point of the Petri plate) was used to calculate MIC for the mixture, expressed as parts per million.
Utilizing the procedure described above in Example 1, Minimum Inhibitory Concentration (“MIC”) for each of the antimicrobial compositions was determined against a test microbe, which in this case was a spore suspension of the bacteria Klebsiella pneumoniae. […]

[1] = system: mixed bacterial inoculum: Pseudomonas aeruginosa (ATCC #10145), Escherichia coli (ATCC #11229), Enterobacter aerogenes (ATCC #13048), Alcaligenes faecalis …; assay: Two-part bacterial challenge of acrylic latex paint samples with a mixed inoculum (performance ratings); format: cell-based; design: key to Performance Ratings Week 1, 1 Day / Performance Ratings Week 1, 2 Days / Performance Ratings Week 1, 8 Days / Performance Ratings Week 2, 1 Day / Performance Ratings Week 2, 2 Days / Performance Ratings Week 2, 8 Days: 0: No bacterial growth; 1: Trace of bacterial growth; 2: Light bacterial growth; 3: Moderate bacterial growth; 4: Heavy bacterial growth; conditions: for Performance Ratings Week 1, 1 Day: Week 1, 1 Day after inoculation; for Performance Ratings Week 1, 2 Days: Week 1, 2 Days after inoculation; for Performance Ratings Week 1, 8 Days: Week 1, 8 Days after inoculation; for Performance Ratings Week 2, 1 Day: Week 2, 1 Day after inoculation; for Performance Ratings Week 2, 2 Days: Week 2, 2 Days after inoculation; for Performance Ratings Week 2, 8 Days: Week 2, 8 Days after inoculation
Method: In order to quantify the antibacterial effectiveness of an antimicrobial composition of interest, samples were prepared by adding various amounts of the antimicrobial composition to identical volumes of a paint that contained no preservatives and was not contaminated by bacteria. In this case, the test sample was a white, aqueous-based, acrylic latex paint. The paint included an acrylic resin, and conventional additives such as surfactant, thickener, defoamer, and titanium oxide.
The samples of the paint were subjected to a two-part challenge procedure and the sample that provided acceptable anti-bacterial protection with the lowest concentration of the antimicrobial composition was identified. Each part of the anti-bacterial challenge consisted of a 7-day test cycle. The parts were performed consecutively over 14 test days.
Challenge testing was accomplished using a mixed bacterial inoculum as the contamination event. These bacteria are Pseudomonas aeruginosa (ATCC #10145), Escherichia coli (ATCC #11229), Enterobacter aerogenes (ATCC #13048), and Alcaligenes faecalis (ATCC #25094). To prepare the test inoculum, each type of bacteria was harvested separately in nutrient broth. Just before use in the challenge test, equal strengths of each bacterial culture were mixed to obtain an inoculum of approximately 10^8 colony forming units per milliliter (cfu/mL).
After incubation, both control blanks and samples containing preservatives of interest were inoculated with the mixed inoculum to a final of 1.0 weight %. […]
Performance ratings of 0, 1, 2, 3 or 4 for each inoculated paint sample were determined by visual inspection of the streak lines, according to the definitions set forth below in Table 25.

SMILES: O=c1[nH]sc2ccccc12 [BIT, 1,2-benzisothiazol-3(2H)-one]
- QB (Klebsiella pneumoniae): 27 ppm
- Performance Ratings Week 1, 1 Day ([1]; 50 ppm in acrylic latex paint): 4
- Performance Ratings Week 1, 2 Days ([1]; 50 ppm in acrylic latex paint): 4
- Performance Ratings Week 1, 8 Days ([1]; 50 ppm in acrylic latex paint): 4
- Performance Ratings Week 2, 1 Day ([1]; 50 ppm in acrylic latex paint): 4
- Performance Ratings Week 2, 2 Days ([1]; 50 ppm in acrylic latex paint): 4
- Performance Ratings Week 2, 8 Days ([1]; 50 ppm in acrylic latex paint): 4
- Performance Ratings Week 1, 1 Day ([1]; 500 ppm in acrylic latex paint): 4
- Performance Ratings Week 1, 2 Days ([1]; 500 ppm in acrylic latex paint): 2
- Performance Ratings Week 1, 8 Days ([1]; 500 ppm in acrylic latex paint): 0
- Performance Ratings Week 2, 1 Day ([1]; 500 ppm in acrylic latex paint): 4
- Performance Ratings Week 2, 2 Days ([1]; 500 ppm in acrylic latex paint): 4
- Performance Ratings Week 2, 8 Days ([1]; 500 ppm in acrylic latex paint): 0

Reference: US20180332847A1, “ANTIMICROBIAL METAL CARBOXYLATE-BENZISOTHIAZOLINONE MIXTURES” (Troy Corporation, priority 2017, published 2018)
